Test results reported in PMC7537338, “CD47/SIRPα blocking peptide identification and synergistic effect with irradiation for cancer immunotherapy” (Journal for Immunotherapy of Cancer, 2020).
Read-outs that look alike come from different tables or passages of the source. Where a SMILES comes first, the peptide text is derived from it. Where no end group is shown, it is not given here. [ ]: non-standard residue; d: D form.

Key:
[1] = molecular target: T1, human CD47/SIRPα interaction (Homo sapiens, UniProt Q08722); assay: Blocking assay, human CD47 protein binding to CHO cells expressing human SIRPα (flow cytometry); conditions: for Blocking rate relative to pep-20 (%): blockade of peptides to hCD47 relative to parent pep-20, Table S4
T1 construct: Human or mouse CD47-IgV-Domain-hIg fusion proteins (20 nM, Sino Biological, China); purchased Sino Biological (hIg fusion); ACROBiosystems (biotinylated human CD47); host or cells: SIRPα partner: CHO cells stably expressing human SIRPα
T1 sequence (Q08722 19-127 limits assumed): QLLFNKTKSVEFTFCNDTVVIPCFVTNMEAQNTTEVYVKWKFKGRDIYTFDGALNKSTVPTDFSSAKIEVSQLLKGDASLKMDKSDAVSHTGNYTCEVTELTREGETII
Procedure: (§1) Human or mouse CD47-IgV-Domain-hIg fusion proteins (20 nM, Sino Biological, China), or biotinylated human CD47 protein (20 nM, ACROBiosystems, USA) was incubated with titrating concentrations of peptides or anti-human CD47 antibody (B6H12) in phosphate-buffered saline (PBS, pH 7.4) for 1 hour at 4°C. The mixture was incubated with human or mice SIRPα overexpressed Chinese hamster ovary cells for 30 min at 4°C, washed to remove unbound mixtures and phycoerythrin (PE)-conjugated goat anti-human IgG or PE-conjugated streptavidin was incubated (eBioscience, USA). Cells were then analyzed by flow cytometry (BD Biosciences, USA). The IC50 was determined from sigmoidal dose response curves illustrated by GraphPad Prism.

[2] = molecular target: T2, human CD47-IgV-Domain protein (Homo sapiens, UniProt Q08722); assay: MST binding assay to human CD47-IgV-Domain protein
T2 construct: Human or mouse CD47-IgV-Domain proteins were labeled with NT-647 dye
T2 sequence (Q08722 19-127 limits assumed): as above
Procedure: (§2) Human or mouse CD47-IgV-Domain proteins were labeled with NT-647 dye following the microscale thermophoresis (MST) assay protocol, and the labeled protein used for each assay was about 50 to 200 nM. Unlabeled peptides or ligand protein solution was diluted for appropriate concentration serially in buffer (50 mM Tris, 150 mM NaCl, 10 mM MgCl2, 0.05% Tween-20, 0.5% DMSO and pH 7.5). The labeled proteins were then added to peptides or ligand protein solutions by 1∶1 (v/v). The samples were loaded into silica capillaries after incubation at room temperature for 30 min. Binding constants were determined by the MST assay according to manufacturer’s instructions with 20% or 40% light emitting diode (LED) power, 40% MST power at 25°C (Nano Temper, Monolith NT.115, Germany). Data analysis were performed by using a Nanotemper Analysis software.

in vivo = conditions: C57BL/6, mouse, iv, 40 mg/kg
Procedure: (E, F) The pharmacokinetic analysis
(§3) of pep-20 and pep- 20-D12. The plasma concentration-time curve of pep-20 (E) and
Data are represented as means ± SEM.
Pharmacokinetic assays in vivo 140
(§4) C57BL/6 mice with weight of 18-20 g were administrated with a single 141
(§5) intravenous dose of 40 mg/kg of peptides. Blood samples were collected an d 142
(§6) centrifuged at 8000 rpm for 10 min at the indicated intervals. Plasma wa s 143
(§7) further mixed with 10% HClO4 at a ratio of 2∶1 (v/v) and centrifuged at 16,000 144
(§8) rpm for 10 min. The supernatant was analyzed by RP-HPLC. The 145 pharmacokinetic parameters of peptides were determined by 146 noncompartmental analysis (NCA) using Phoenix WinNonlin software program 147 5.2.1 (Certara, Princeton, USA). The maximum plasma concentration Cmax and 148 elimination half-life (T1/2) were calculated.

[3] = Pharmacokinetic assay in vivo; conditions: C57BL/6, mouse, plasma, iv, 40 mg/kg
Procedure: (E, F) The pharmacokinetic analysis
as §3
Data are represented as means ± SEM.
Pharmacokinetic assays in vivo 140
as §4, §5, §6, §7, §8

[4] = molecular target: T3, mouse CD47/SIRPα interaction (Mus musculus, UniProt Q61735); assay: Blocking assay, mouse CD47-IgV-Domain-hIg binding to CHO cells expressing mouse SIRPα (flow cytometry); conditions: figure 1D, approximately
T3 construct: Human or mouse CD47-IgV-Domain-hIg fusion proteins (20 nM, Sino Biological, China); purchased Sino Biological; host or cells: SIRPα partner: CHO cells stably expressing mouse SIRPα
T3 sequence (Q61735 19-125 limits assumed): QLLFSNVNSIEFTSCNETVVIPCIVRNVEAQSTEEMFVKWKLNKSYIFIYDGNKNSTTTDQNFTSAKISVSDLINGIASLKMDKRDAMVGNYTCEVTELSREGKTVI
Procedure: as §1

C57BL/6 naïve mice = assay: Mouse toxicity assays in normal mice; type: in vivo, C57BL/6 mice
Procedure: toxicity analysis. Normal C57BL/6 mice were injected s.c. with 2 mg/kg of pep-20 or normal saline as the negative control daily from day 1 to 14 ( n = 5). On days 0 and 14, hematologic parameters were analyzed. Red blood cell count (A), hemoglobin level ( B) have no significant difference between pep-20 group and control group. (C) Representative H&E staining images of pep-20 treated. Normal C57BL/6 mice were injected s.c. with 2 mg/kg of pep-20 or normal saline as the negative control daily for 14 days (n = 5). The mouse primary organs of heart, liver, spleen, lung, kidney and thymus […]
Table S2. Organ coefficients analysis of pep-20-treated mice.
Heart Liver Spleen Lung Kidney thymus
Normal C57BL/6 mice were injected s.c. with 2 mg/kg pep-20 or normal saline as the negative control daily for 14 days (n = 5). The mice organ tissues were stripped for organ […]
Table S3. Hepatic damage analysis of pep-20-treated mice. […]
negative control daily for 14 days (n = 5). Mice serum samples were collected and hepatic damage analysis were performed for standard aspartate aminotransferase assay (AST) and alanine aminotransferase assay (ALT).
111 Mouse toxicity assays
112 Normal C57BL/6 mice were injected s.c. with 2 mg/kg peptides or normal 113 saline as the negative control daily from day 1 to 14 (n = 5). On days 0 and 14, 114 mice blood samples were collected via retro-orbital bleed. […]
116 Hematologic and blood biochemical parameters were analyzed by ADVIA 117 2120i Hematology Analyzer (Siemens, Germany). […]

[5] = molecular target: T4, mouse CD47-IgV-Domain protein (Mus musculus, UniProt Q61735); assay: MST binding assay to mouse CD47-IgV-Domain protein; conditions: figure 1B, read-out: KD, pep-20/mCD47
T4 construct: Human or mouse CD47-IgV-Domain proteins were labeled with NT-647 dye
T4 sequence (Q61735 19-125 limits assumed): T3 sequence (Q61735 19-125 limits assumed)
Procedure: as §2

[6] = Solubility as observed in the binding assay; type: physicochemical; conditions: higher titrating concentrations for the MST binding assay could not be used
Procedure: To assess the affinity of these candidate peptides toward human CD47, the preliminary binding assay was performed. […] In addition, due to the presence of consensus sequences, it can be hypothesized that the peptides pep-5, pep-9 and pep-19 may have higher affinities.
Table S1. Amino acid sequences and binding activity of selected peptides.
Name Peptide sequence Frequency (n/43) KD (μM)
Peptides targeting hCD47 were obtained by bio-panning, the affinity of peptides to hCD47

[7] = preliminary binding assay, Table S1, NT-647 labeled hCD47, 50 mM Tris, 150 mM NaCl, 10 mM MgCl2, 0.05% Tween-20, 0.5% DMSO, pH 7.5, 25°C, read-out: KD
[8] = 2 mg/kg s.c. daily over 14 days, days 0 and 14, n = 5

In the case of C[C@H](NC(=O)[C@H](CO)NC(=O)[C@H](Cc1c[nH]c2ccccc12)NC(=O)[C@@H](C)N)C(=O)N[C@H](C(=O)N[C@@H](Cc1c[nH]c2ccccc12)C(=O)N[C@@H](CO)C(=O)N[C@@H](CC(N)=O)C(=O)N[C@@H](Cc1ccc(O)cc1)C(=O)N[C@@H](Cc1c[nH]c2ccccc12)C(=O)N[C@@H](CCCNC(=N)N)C(=O)N[C@H](Cc1c[nH]cn1)C(=O)O)[C@@H](C)O [pep-20-D2] (H-[dA]WSATWSNYWR[dH]-OH), the “Blocking rate relative to pep-20 (%)” value [1] is reported as 83%.
With C[C@H](NC(=O)[C@H](CO)NC(=O)[C@H](Cc1c[nH]c2ccccc12)NC(=O)[C@@H](C)N)C(=O)N[C@H](C(=O)N[C@@H](Cc1c[nH]c2ccccc12)C(=O)N[C@@H](CO)C(=O)N[C@@H](CC(N)=O)C(=O)N[C@@H](Cc1ccc(O)cc1)C(=O)N[C@@H](Cc1c[nH]c2ccccc12)C(=O)N[C@H](CCCNC(=N)N)C(=O)N[C@H](Cc1c[nH]cn1)C(=O)O)[C@@H](C)O [pep-20-D3] (H-[dA]WSATWSNYW[dR][dH]-OH) the “Blocking rate relative to pep-20 (%)” value [1] was 75%.
With C[C@H](NC(=O)[C@H](CO)NC(=O)[C@H](Cc1c[nH]c2ccccc12)NC(=O)[C@@H](C)N)C(=O)N[C@H](C(=O)N[C@@H](Cc1c[nH]c2ccccc12)C(=O)N[C@@H](CO)C(=O)N[C@@H](CC(N)=O)C(=O)N[C@@H](Cc1ccc(O)cc1)C(=O)N[C@H](Cc1c[nH]c2ccccc12)C(=O)N[C@H](CCCNC(=N)N)C(=O)N[C@H](Cc1c[nH]cn1)C(=O)O)[C@@H](C)O [pep-20-D4] (H-[dA]WSATWSNY[dW][dR][dH]-OH) the “Blocking rate relative to pep-20 (%)” value [1] was 96%.
Work on ASFSSYNRGYMY [pep-15] yielded a Kd [2, 7] of 14.7 ± 20 µM.
Molecule ASYTDWWRNRLQ [pep-18] has a Kd [2, 7] of 161 ± 111 µM.
AWSATWSNYWRH [pep-20] gave a half-life (in vivo) of 35.4 min, a Cmax [3] of 33600 ng/mL and a Kd ([2]; human CD47-IgV-Domain protein, figure 1A, read-out: KD, pep-20/hCD47) of 2.91 ± 1.04 µM. The Kd [2, 7] was 3.19 ± 2.27 µM, the IC50 [4] was ~12 µM and the “Organ coefficient, Spleen” value (C57BL/6 naïve mice; 2 mg/kg s.c. daily for 14 days, n = 5, NS 0.3±0.04) was 0.31±0.3. The “Organ coefficient, thymus” value (C57BL/6 naïve mice; 2 mg/kg s.c. daily for 14 days, n = 5, NS 0.42±0.06) was 0.36±0.07, the “Organ coefficient, Heart” value (C57BL/6 naïve mice; 2 mg/kg s.c. daily for 14 days, n = 5, NS 0.55±0.03) was 0.58±0.05 and the “Organ coefficient, Lung” value (C57BL/6 naïve mice; 2 mg/kg s.c. daily for 14 days, n = 5, NS 0.76±0.19) was 0.77±0.18. The “Organ coefficient, Kidney” value (C57BL/6 naïve mice; 2 mg/kg s.c. daily for 14 days, n = 5, NS 1.15±0.05) was 1.14±0.06, the “Organ coefficient, Liver” value (C57BL/6 naïve mice; 2 mg/kg s.c. daily for 14 days, n = 5, NS 5.02±0.3) was 5.01±0.16 and the “Histopathology, H&E staining of major organs” value (C57BL/6 naïve mice; 2 mg/kg s.c. daily for 14 days, heart, liver, spleen, lung, kidney, thymus) was “no abnormalities”. For the same molecule, the Hemoglobin level (C57BL/6 naïve mice; [8]) was “no significant differences”, the “Red blood cell count” value (C57BL/6 naïve mice; [8]) was “no significant differences” and the ALT (C57BL/6 naïve mice; serum, 2 mg/kg s.c. daily for 14 days, n = 5, NS 6.79±0.92) was 7.03±0.86. For the same molecule, the AST (C57BL/6 naïve mice; serum, 2 mg/kg s.c. daily for 14 days, n = 5, NS 23.40±4.41) was 28.41±5.08, the IC50 ([1]; 20 nM human CD47-IgV-Domain-hIg, CHO cells expressing human SIRPα, flow cytometry, figure 1C) was 24.6 µM and the “Blocking rate relative to pep-20 (%)” value [1] was 100%. It also gave a Kd [5] of 3.63 ± 1.71 µM.
For DRIPKIPGLPVL [pep-6], the Kd [2, 7] was 9.27 ± 15.1 µM.
With GNKLTQLAASMM [pep-4] the Kd [2, 7] was 5.32 µM.
With GTYSNYVSHINN [pep-9] the Solubility [6] was “poor solubility”.
For KLLPSLPSVSRN [pep-14], the Kd [2, 7] was > 500 µM.
In the case of LPHYIYETLPVR [pep-5], the Solubility [6] is reported as “poor solubility”.
With LYAGKLERISRG [pep-16] the Kd [2, 7] was 10.7 ± 8.89 µM.
TDLRYKEHYLYL [pep-3] showed a Kd [2, 7] of 0.67 µM.
VSPLELADNPMY [pep-10] gave a Kd [2, 7] of 49.9 ± 54.8 µM.
For VSYKEHDMLYSF [pep-19], the Solubility [6] was “poor solubility”.
